Legend:
[1] = tested on: RAA-SNS, serum aldosterone, fasting glucose, HOMA-IR; conditions: cited from earlier work
[2] = Crossover trial in pre- or Stage I hypertension: serum and 24-hour urinary K and Mg; format: in vivo, human; conditions: 4-week phases, 20 meq K bid; vs placebo phase, p<0.01
From the text: In the inventors' published study (Vongpatanasin, 2016), 30 patients with pre- (6 subjects) or Stage I (24 subjects) hypertension underwent a crossover trial, whereby they took KMgCit powder (20 meq K, 10 meq Mg and 37 meq citrate twice daily), KCit powder (20 meq K and 20 meq citrate twice daily), KCl powder (20 meq K and 20 meq chloride twice daily), or placebo (microcrystalline cellulose) for four weeks each. Among hypertensive subjects, 17 of 24 received antihypertensive treatment before study participation. All treated subjects received single-drug regimen before participation in the study (6 were on β blockers, 11 on angiotensin receptor blockers, or angiotensin-converting enzyme inhibitors, or calcium channel blockers), which was continued at the same dose throughout the study. None of the subjects had low serum Mg<1.8 mg/dl or serum K<3.5 meq/l or were on diuretic therapy.
Serum K and 24-hour urinary K excretion were increased during KCl, KCit, and KMgCit phases compared with placebo phase (p <0.01 vs placebo). Serum Mg was increased during KMgCit phase compared with placebo and KCl phases (both p<0.01); 24-hour urinary Mg excretion was increased during KMgCit phase compared with placebo and KCit (both p<0.01). 24-hour urinary Mg excretion was higher during KMgCit compared with KCl (p=0.017).

serum triglyceride = experiment: Serum triglyceride in healthy adults on HCTZ with KMgCit or KCl; format: in vivo, human; conditions: from 1 month to 5 months of treatment; with HCTZ 50 mg/day; 40 meq K/day; p=0.09 between groups
Experimental: In the inventors' prior study (Odvina, & Pak, 2006), previously unpublished data on serum triglyceride were extracted. Eight healthy adult subjects took HCTZ 50 mg/day with KMgCit containing 40 meq K and 20 meq Mg/day for 6 months. Ten subjects received HCTZ 50 mg/day with KC1 40 meq K/day. Serum triglyceride declined by −32±41 mg/dL from 1 month to 5 months of treatment in the KMgCit group; It was underaltered from 1 month to 5 months of KCl treatment (0±31 mg/dL). The difference of the change in serum triglyceride between KMgCit and KCl groups was marginally significant (p=0.09). No baseline or 6 month data were available.

serum FGF23 = experiment: Crossover randomized trial in pre- or Stage I hypertension: serum FGF23; format: in vivo, human; conditions: 30 patients; after 4 weeks of treatment; 20 meq K twice daily; p=0.05
Experimental: FIG. 4 illustrates effect of KMgCit on serum FGF23.
In the inventors' study, 30 patients with pre- or Stage I hypertension participated in a crossover randomized trial, whereby they took KMgCit powder (20 meq K, 10 meq Mg and 37 meq citrate twice daily) or KCl powder (20 meq K and 20 meq chloride twice daily) for four weeks each. After 4 weeks of treatment, serum samples were analyzed fro FGF23.

SMILES	CTD-induced activation of RAA-SNS ([1]; KCl supplementation)	Serum aldosterone ([1]; TZ-treated patients with hypertension, KCl supplementation)	CTD-induced fasting hyperglycemia and increased HOMA-IR ([1]; correction of hypokalemia by KCl)	24-hour urinary K excretion [2]	Serum K [2]	Change in serum triglyceride (serum triglyceride) [mg/dL]	Serum FGF23 (serum FGF23) [Rel U/ml]
[Cl-].[K+] [KCl powder, potassium chloride]	unaffected	did not reduce	did not reverse	increased	increased	0 ± 31	53.1±22.2
O=C([O-])CC(O)(CC(=O)[O-])C(=O)[O-].[K+].[K+].[K+] [KCit powder, potassium citrate]				increased	increased		

Source: US20170281578A1, “METHODS FOR TREATING METABOLIC DISTURBANCES” (THE BOARD OF REGENTS OF THE UNIVERSITY OF TEXAS SYSTEM, priority 2016, published 2017)
